Results as given in US20250257383A1, “MATERIAL DETECTION METHOD USING AMINOACYLASE” (JOSHO GAKUEN EDUCATIONAL FOUNDATION, priority 2021, published 2025).

Tests used:
[1] = system: amidohydrolase 4ewt (amino acid sequence of SEQ ID NO: 1, SACOL0085); assay: Enzymatic detection of hippuric acid or methylhippuric acid by hydrolysis with amidohydrolase 4ewt and glycine oxidase/Trinder absorbance measurement (Example); format: biochemical, Staphylococcus aureus COL; conditions: amidohydrolase 4ewt 30 units/mL; specimens 5, 10, 20 mM in saline; 37° C.; Tris buffer pH 8.5; absorbance 545 nm; FIG. 3
Description: A first reagent R1 was prepared which contained 30 units/mL of amidohydrolase 4ewt, 7.5 units/mL of peroxidase, 4.5 mM of N-ethyl-N-(2-hydroxy-3-sulfopropyl)-3-methoxyaniline (TOOS), and 50 mM of Tris buffer (pH 8.5), and a second reagent R2 was prepared which contained 5 units/mL of glycine oxidase, 1.2 mM of 4-aminoantipyrine, and 100 mM of Tris buffer (pH 8.5).
Specimen Groups 1 to 4 and Specimen 0 were prepared as measurement samples, i.e., examination specimens.
Each of the examination specimens was diluted to five times by means of an automatic analyzer to prepare a diluted specimen solution. A volume of 60 μL of the first reagent R1 was added and mixed with 2 μL of the diluted specimen solution, and the reaction was allowed to proceed well at 37° C. After that, 20 μL of the second reagent R2 was further added and mixed with the reaction mixture, and the reaction was allowed to proceed well at 37° C. The absorbance of the resulting specimen solution was measured using an automatic analyzer, manufactured by JEOL Ltd. under the trade name JCA-BM 6050, at a primary wavelength of 545 nm and a secondary wavelength of 805 nm. The concentration of hippuric acid or methylhippuric acid in each examination specimen was calculated from the measured absorbance and plotted on a graph.
In FIG. 3, the abscissa represents known concentrations (unit: mM) of hippuric acid or methylhippuric acid in the examination specimens and the ordinate represents measured concentrations (unit: mM) obtained by the automatic analyzer. In FIG. 3, the diamond symbols represent the specimens of Specimen Group 1, namely the examination specimens containing hippuric acid, the square symbols represent the specimens of Specimen Group 2, namely the examination specimens containing 2-methylhippuric acid, the triangle symbols represent the specimens of Specimen Group 3, namely the examination specimens containing 3-methylhippuric acid, and the x symbols represent the specimens of Specimen Group 4, namely the examination specimens containing 4-methylhippuric acid. The examination specimen for which the known concentration is 0 mM is Specimen 0, which is represented by using all of the symbols representing Specimen Groups 1 to 4 since, as previously stated, Specimen 0 was used as a negative control in measurement for the Specimen Groups 1 to 4.
The amidohydrolase 4ewt used in Example was produced using a gene chemically synthesized by converting the amino acid sequence of SEQ ID NO: 1 to a base sequence. […]

[2] = system: hippurate hydrolase (EC 3.5.1.32); assay: Same detection method using hippurate hydrolase (Comparative Example 2); format: biochemical; conditions: hippurate hydrolase instead of amidohydrolase; specimens 5, 10, 20 mM in saline; 37° C.; FIG. 5
Description: (§1) The absorbance of each specimen was measured in the same manner as in Example, except for using a hitherto known hippurate hydrolase (EC 3.5.1.32, manufactured by Nipro Corporation) instead of the amidohydrolase used in Example. The concentration of hippuric acid or methylhippuric acid in each examination specimen was calculated from the measured absorbance and plotted on a graph. The abscissa, ordinate, and symbols in FIG. 5 are the same as those in FIG. 3 or 4.

[3] = system: aminoacylase PH1043; assay: Same detection method using aminoacylase PH1043 (Comparative Example 1); format: biochemical, Pyrococcus horikoshii; conditions: aminoacylase PH1043 instead of amidohydrolase; specimens 5, 10, 20 mM in saline; 37° C.; FIG. 4
Description: as §1, with “using” for “using a”, “aminoacylase PH1043” for “hippurate hydrolase (EC 3.5.1.32, manufactured by Nipro Corporation)”, “4” for “5”, “3.” for “3 or 4.”
The aminoacylase PH1043 used in Comparative Example 1 is one produced by Nipro Corporation. The aminoacylase PH1043 will not be described in detail as it is a hitherto known enzyme described, for example, in the following literatures: Imai Satsuki, Nagoshi Kentaro, Shinki Shota, Baba Toshiaki, Nishiya Yoshiaki, “Functional Modification of Pyrococcus horikoshii-Derived Hippurate Hydrolase”, The Society for Biotechnology, Japan (2018) (Reference Literature 7); Imai Satsuki, Nagoshi Kentaro, Shinki Shota, Baba Toshiaki, Nishiya Yoshiaki, “Development of Method and Enzyme for Enzymatic Assay of Hippuric Acid”, The Society of Analytical Bio-Science (2019) (Reference Literature 8); Imai Satsuki, Nagoshi Kentaro, Shinki Shota, Baba Toshiaki, Nishiya Yoshiaki, “Functional Improvement of Hippurate Hydrolase”, Japan Society for Bioscience, Biotechnology and Agrochemistry (2019) (Reference Literature 9); Imai Satsuki, Nagoshi Kentaro, Shinki Shota, Baba Toshiaki, Nishiya Yoshiaki, “Functional Improvement of Hippurate Hydrolase toward Practical Use”, The Molecular Biology Society of Japan (2019) (Reference Literature 10); Imai Satsuki, Nagoshi Kentaro, Shinki Shota, Baba Toshiaki, Nishiya Yoshiaki, “Development of Enzymatic Assay Method for Determining Total Exposure to Toluene and Xylene (1)”, The Society of Analytical Bio-Science (2020) (Reference Literature 11); and Suginaka Muneyuki, Torii Gento, Imai Satsuki, Baba Toshiaki, Nishiya Yoshiaki, “Development of Enzymatic Assay Method for Determining Total Exposure to Toluene and Xylene (2)”, The Molecular Biology Society of Japan (2020) (Reference Literature 12). The contents of Reference Literatures 7 to 12 are incorporated herein by reference.

## Cc1ccc(C(=O)NCC(=O)O)cc1 [4-methylhippuric acid]
[1]
  agreement of measured concentration with known concentration in the specimen (hydrolysis by the enzyme): agree well with each other
[2]
  agreement of measured concentration with actual concentration in the specimen (hydrolysis by the enzyme): agreed well with the actual concentrations
[3]
  agreement of measured concentration with actual concentration in the specimen (hydrolysis by the enzyme): agreed well with the actual concentrations

## Cc1cccc(C(=O)NCC(=O)O)c1 [3-methylhippuric acid]
[1]
  agreement of measured concentration with known concentration in the specimen (hydrolysis by the enzyme): agree well with each other
[2]
  agreement of measured concentration with actual concentration in the specimen (hydrolysis by the enzyme): agreed well with the actual concentrations
[3]
  agreement of measured concentration with actual concentration in the specimen (hydrolysis by the enzyme): agreed well with the actual concentrations

## O=C(O)CNC(=O)c1ccccc1 [hippuric acid, benzoylaminoacetic acid]
[1]
  agreement of measured concentration with known concentration in the specimen (hydrolysis by the enzyme): agree well with each other
[2]
  agreement of measured concentration with actual concentration in the specimen (hydrolysis by the enzyme): agreed well with the actual concentrations
[3]
  agreement of measured concentration with actual concentration in the specimen (hydrolysis by the enzyme): agreed well with the actual concentrations

## Cc1ccccc1C(=O)NCC(=O)O [2-methylhippuric acid, (2-methylbenzoylamino)acetic acid]
[1]
  agreement of measured concentration with known concentration in the specimen (hydrolysis by the enzyme): agree well with each other
[2]
  agreement of measured concentration with actual concentration in the specimen (hydrolysis by the enzyme): not much different from the measured concentration obtained for the negative control
[3]
  agreement of measured concentration with actual concentration in the specimen (hydrolysis by the enzyme): not much different from the measured concentration obtained for the negative control
